This passage reports inhibition and IC50 results from ChEMBL document CHEMBL1138583, “Pharmacophore modeling study based on known spleen tyrosine kinase inhibitors together with virtual screening for identifying novel inhibitors” (Bioorg Med Chem Lett, 2009).

SMILES strings stand for the structures.

For the first assay, the target named is T1, Tyrosine-protein kinase SYK (Homo sapiens, UniProt P43405). In words: Inhibition of recombinant Syk at 10 uM.
Regarding `COc1cccc2cc(C(N)=O)/c(=N/c3ccc(-c4ccccc4)cc3)oc12`, the inhibition (as a rule, the drop in the measured response relative to a control, in per cent) stood at 63%.
Consider `O=C1NC(=O)N(c2cccc(Cl)c2)C(=O)/C1=C\Nc1ccc(Cl)cc1[N+](=O)[O-]`, for which the inhibition was 51%.

Another assay has as its target T1, Tyrosine-protein kinase SYK. In words: Inhibition of recombinant Syk.
Regarding `CCOc1cccc(Nc2nc(NCCN)ncc2C(N)=O)c1`, the IC50 (in general, the concentration that gives 50% inhibition) turned out to be 81 nM.
Still for that read-out and setting: as for `COC(=O)c1ccc(COc2ccc(Nc3nccc(-c4nccs4)n3)cc2)cc1`, the figure is 2000 nM.
On the same count and under the same terms, the value for `Cc1cc(Nc2nn(C(C)C)c(=O)c3cc(N4CCOCC4)ccc23)[nH]n1` was 1100 nM; that for `Fc1ccc(Nc2nccc(-c3nccs3)n2)cc1` was 1000 nM; that for `Cc1cc(Nc2nccc(-c3nc(C)c(CCO)s3)n2)cc(C(F)(F)F)c1` was 22 nM.
The same measure, in the same setting: the value for `COc1cc(Nc2nc(NC3CCCC[C@H]3N)n3ncnc3c2C(N)=O)cc(OC)c1` (stereo partly drawn) was 1 nM; that for `COC(=O)c1ccccc1-c1ccc(/C=C2/SC(=S)N(Cc3ccccc3)C2=O)o1` was 4000 nM; that for `O=[N+]([O-])c1ccccc1COc1ccc(Nc2nccc(-c3nccs3)n2)cc1` was 2000 nM.
Turning to `Cc1cc(C)cc(Nc2nccc(-c3nc(C)cs3)n2)c1`, the concentration for half-maximal inhibition (IC50) was determined as 56 nM.
The same measure, in the same setting: the value for `N#C/C(=C\c1ccc(O)c(O)c1)C(N)=S` [TYRPHOSTIN 47] was 38000 nM.
Still for that read-out and setting: as for `Nc1ccccc1COc1ccc(Nc2nccc(-c3nccs3)n2)cc1`, the figure is 500 nM; as for `Cc1c(/C=C2/C(=O)Nc3ccc(S(N)(=O)=O)cc32)c2ccccc2n1C`, 4000 nM; as for `Oc1ccc(Nc2nccc(-c3nccs3)n2)cc1`, 500 nM.
The same measure, in the same setting: as for `CCc1cccc(Nc2nc(NCCN)ncc2C(N)=O)c1`, the figure is 53 nM; as for `Cc1cc(Nc2nccc(-c3nccs3)n2)cc(C(F)(F)F)c1`, 110 nM; as for `NCCNc1ncc(C(N)=O)c(Nc2ccccc2)n1`, 280 nM.
In the case of `Cc1ncc(C(N)=O)c(Nc2cccc(C(F)(F)F)c2)n1`, the 50% inhibitory concentration (IC50) stood at 5000 nM.
On the same count and under the same terms, the value for `Cc1cc(C)cc(Nc2nccc(-c3nc(C)c(CCO)s3)n2)c1` was 32 nM.
Still for that read-out and setting: as for `COc1cc(Nc2nc(NC3CCCC[C@H]3N)n3nc(-c4cccc(O)c4)nc3c2C(N)=O)cc(OC)c1` (stereo partly drawn), the figure is 7 nM.
Same read-out and setting: the value for `COc1cc(Nc2nc(N[C@@H]3CCCC[C@@H]3N)n3cnnc3c2C(N)=O)cc(OC)c1` was 9 nM.
Take `Cc1cc(Nc2nn(C(C)C)c(=O)c3cc(N4CCN(C)CC4)ccc23)[nH]n1`: the half-maximal inhibitory concentration (IC50) came to 5360 nM.
The same measure, in the same setting: as for `Cc1cc(C)cc(Nc2nc(N[C@H](CN)c3ccccc3)n3ccnc3c2C(N)=O)c1`, the figure is 21 nM; as for `CC(C)c1cccc(Nc2nc(NCCN)ncc2C(N)=O)c1`, 92 nM; as for `Cc1cc(C)cc(Nc2nc(CC3CCCC[C@H]3N)n3ccnc3c2C(N)=O)c1` (stereo partly drawn), 2.5 nM.
On to `COc1c(C[C@@H](C)OC(=O)Oc2ccc(O)cc2)c2c3c(C[C@@H](C)OC(=O)c4ccccc4)c(OC)c(=O)c4c(O)cc(OC)c(c5c(OC)cc(O)c(c1=O)c52)c43` [CALPHOSTIN C], for which the IC50 amounted to 1100 nM.
On the same count and under the same terms, the value for `CCc1cc(NCC(C)(C)N)n2nc(Nc3cc(OC)cc(OC)c3)c(C(N)=O)c2n1` was 3890 nM.
For the molecule `COc1cc(Nc2nc(NC3CCCC[C@H]3N)n3cnnc3c2C(N)=O)cc(OC)c1` (stereo partly drawn), the IC50 came out at 3.7 nM.
The same measure, in the same setting: the value for `c1cc(-c2nccs2)nc(Nc2ccc(OCC3CCCCC3)cc2)n1` was 2000 nM; that for `c1ccc2cc(Nc3nccc(-c4nccs4)n3)ccc2c1` was 2000 nM.
Same read-out and setting: as for `COc1ccc(CNS(=O)(=O)c2ccc3c(c2)/C(=C/c2cn(C)c4ccc(OC)cc24)C(=O)N3)cc1`, the figure is 4000 nM.
Same read-out and setting: as for `COc1cc(Nc2nc(NC3CCCCC[C@H]3N)n3ccnc3c2C(N)=O)cc(OC)c1` (stereo partly drawn), the figure is 1.6 nM; as for `CS(=O)(=O)c1cccc(Oc2cccc(Nc3nccc(-c4nccs4)n3)c2)c1`, 500 nM.
With `c1cncc(Oc2cccc(Nc3nccc(-c4nccs4)n3)c2)c1`, the IC50 amounted to 500 nM.
On the same count and under the same terms, as for `c1ccc(COc2ccc(Nc3nccc(-c4nccs4)n3)cc2)cc1`, the figure is 1000 nM.
Same read-out and setting: the value for `Cc1cccc(Nc2nc(N[C@@H]3CCCC[C@@H]3N)ccc2C(N)=O)c1` was 50 nM; that for `FC(F)(F)c1ccc(Nc2nccc(-c3nccs3)n2)cc1` was 500 nM; that for `c1cc(COc2ccc(Nc3nccc(-c4nccs4)n3)cc2)ccn1` was 2000 nM.
Still for that read-out and setting: as for `COc1cc(Nc2nc(N[C@@H]3CCCC[C@@H]3N)n3ncnc3c2C(N)=O)cc(OC)c1`, the figure is 4 nM.
`NC(=O)c1cncnc1Nc1cccc(C(F)(F)F)c1`: the half-inhibitory concentration (IC50) worked out at 5000 nM.
Same read-out and setting: as for `COc1cc(/C=C/[N+](=O)[O-])ccc1O`, the figure is 76000 nM; as for `N#Cc1cccc(Nc2nc(NCCN)ncc2C(N)=O)c1`, 110 nM; as for `COc1cc(/C=C/[N+](=O)[O-])ccc1OC(=O)c1ccccc1`, 3800 nM.
Same read-out and setting: as for `c1ccc(Oc2cccc(Nc3nccc(-c4nccs4)n3)c2)cc1`, the figure is 1000 nM; as for `NCCCNc1ncc(C(N)=O)c(Nc2cccc(C(F)(F)F)c2)n1`, 230 nM.
On the same count and under the same terms, as for `c1ccc(COc2cccc(Nc3nccc(-c4nccs4)n3)c2)cc1`, the figure is 500 nM.
`c1ccn(CCOc2ccc(Nc3nccc(-c4nccs4)n3)cc2)c1`: the half-maximal inhibitory concentration (IC50) came out at 500 nM.
The same measure, in the same setting: as for `CC(C)Oc1cccc(Nc2nc(NCCN)ncc2C(N)=O)c1`, the figure is 72 nM.
Same read-out and setting: the value for `CN(C)c1ccc(-c2cc3ncccc3c(NC(C)(C)CN)n2)cc1` was 310 nM.
Same read-out and setting: the value for `COc1cc(Nc2nc(NC3CCCC[C@H]3N)n3nc(C)nc3c2C(N)=O)cc(OC)c1` (stereo partly drawn) was 11.2 nM; that for `OCCCOc1cc(Nc2nccc(-c3nccs3)n2)cc(C(F)(F)F)c1` was 26 nM.
Take `NCCCNc1nc(-c2cccc(C(F)(F)F)c2)cc2ncccc12`: the IC50 was 830 nM.
Same read-out and setting: as for `CN(C)CCN(C)c1ncc(C(N)=O)c(Nc2cccc(C(F)(F)F)c2)n1`, the figure is 10000 nM; as for `COCCOc1ccc2c(Nc3cc(C)[nH]n3)nn(C(C)C)c(=O)c2c1`, 894 nM.
On the same count and under the same terms, as for `Cc1cc(Nc2nn(CC3CCCNC3)c(=O)c3ccccc23)[nH]n1` (stereo not drawn), the figure is 6530 nM; as for `c1c[nH]c(-c2ccnc(Nc3ccc(Oc4ccc5c(c4)OCO5)cc3)n2)c1`, 500 nM.
The same measure, in the same setting: as for `Cc1ccc(C)c(Nc2nccc(-c3nccs3)n2)c1`, the figure is 1820 nM.
